Test results as given in patent US20080113946A1, “N-aryl-5,7-dihydrofuro[3,4-d]pyrimidin-4-amines and analogs as activators of caspases and inducers of apoptosis and the use thereof” (Cyntovia, Inc., priority 2006, published 2008).

Assays:
Assay type in all cases: cell-based
[1] = test system: Human breast cancer cell line T-47D; assay: Caspase cascade activation (Ac-DEVD-R110 fluorogenic substrate) in T-47D cells; conditions: T47D, T-47D, incubated 24 or 48 h (Table I), 0.016 to 10 μM final, read-out: Caspase Activation Potency EC50 T-47D
Method: (§1) Human breast cancer cell line T-47D, human hepatocellular carcinoma cell line SNU398 and human colon carcinoma cell line HCT116 were grown according to media component mixtures designated by American Type Culture Collection+10% FCS (Invitrogen Corporation), in a 5% CO2-95% humidity incubator at 37° C. T-47D and H1299 cells were maintained at a cell density between 50 and 80% confluency at a cell density of 0.1 to 0.6×10^6 cells/mL. Cells were harvested at 600×g and resuspended at 0.65×10^6 cells/mL into appropriate media+10% FCS. An aliquot of 22.5 μL of cells was added to a well of a 384-well microtiter plate containing 2.5 μL of a 10% DMSO in RPMI-1640 media solution containing 0.16 to 100 μM of 5,7-dihydro-N-(3,5-dimethoxyphenyl)-2-(methylthio)furo[3,4-d]pyrimidin-4-amine or other test compound (0.016 to 10 μM final). An aliquot of 22.5 μL of cells was added to a well of a 384-well microtiter plate containing 2.5 μL of a 10% DMSO in RPMI-1640 media solution without test compound as the control sample. The samples were mixed by agitation and then incubated at 37° C. for 24 or 48 h in a 5% CO2-95% humidity incubator. After incubation, the samples were removed from the incubator and 25 μL of a solution containing 14 μM of N-(Ac-DEVD)-N′-ethoxycarbonyl-R110 (SEQ ID No.:1) fluorogenic substrate (Cytovia, Inc.; WO99/18856), 20% sucrose (Sigma), 20 mM DTT (Sigma), 200 mM NaCl (Sigma), 40 mM Na PIPES buffer pH 7.2 (Sigma), and 500 µg/mL lysolecithin (Calbiochem) was added. The samples were mixed by agitation and incubated at room temperature. Using a fluorescent plate reader (Model SPECTRAfluor Plus, Tecan), an initial reading (T=0) was made approximately 1-2 min after addition of the substrate solution, employing excitation at 485 nm and emission at 530 nm, to determine the background fluorescence of the control sample. After the 3 h incubation, the samples were read for fluorescence as above (T=3 h).
(§2) The Relative Fluorescence Unit values (RFU) were used to calculate the sample readings as follows: RFU(T=3h)−Control RFU(T=0)=Net RFU(T=3h)
(§3) The activity of caspase cascade activation was determined by the ratio of the net RFU value for 5,7-dihydro-N-(3,5-dimethoxyphenyl)-2-(methylthio)furo[3,4-d]pyrimidin-4-amino or other test compound to that of control samples. The EC50 (nM) was determined by a sigmoidal dose-response calculation (Prism 3.0, GraphPad Software Inc.).

[2] = test system: human colon carcinoma cell line HCT116; assay: Caspase cascade activation (Ac-DEVD-R110 fluorogenic substrate) in HCT116 cells; conditions: HCT-116, incubated 24 or 48 h (Table I), 0.016 to 10 μM final, read-out: Caspase Activation Potency EC50 HCT116
Method: as §1, §2, §3

[3] = test system: human hepatocellular carcinoma cell line SNU398; assay: Caspase cascade activation (Ac-DEVD-R110 fluorogenic substrate) in SNU398 cells; conditions: SNU-398, incubated 24 or 48 h (Table I), 0.016 to 10 μM final, read-out: Caspase Activation Potency EC50 SNU398
Method: as §1, §2, §3

Row | EC50 [1] [µM] | EC50 [2] [µM] | EC50 [3] [µM] | Compound
1 | 3.19 | 5.15 | 2.56 | COc1ccc(N(C)c2nc(SC)nc3c2COC3)cc1 [Example 8, 5,7-Dihydro-N-(4-methoxyphenyl)-N-methyl-2-(methylthio)furo[3,4-d]pyrimidin-4-amine]
2 | 1.19 | > 10 | > 10 | COc1cc(Nc2ncnc3c2COC3)cc(OC)c1 [Example 9, 5,7-Dihydro-N-(3,5-dimethoxyphenyl)-furo[3,4-d]pyrimidin-4-amine]
3 | > 10 | > 10 | > 10 | Cc1nc2c(c(Nc3cccc(Br)c3)n1)COC2 [Example 10, 5,7-Dihydro-N-(3-bromophenyl)-2-methylfuro[3,4-d]pyrimidin-4-amine]
4 | 1.29 | > 10 | > 10 | COc1cc(Nc2nc(C)nc3c2COC3)cc(OC)c1 [Example 11, 5,7-Dihydro-N-(3,5-dimethoxyphenyl)-2-methylfuro[3,4-d]pyrimidin-4-amine]
5 | > 10 | > 10 | > 10 | CSc1nc2c(c(Nc3cc(C)n[nH]3)n1)COC2 [Example 12, 5,7-Dihydro-N-(3-methyl-1H-pyrazol-5-yl)-2-(methylthio)furo[3,4-d]pyrimidin-4-amine]
6 | > 10 | > 10 | > 10 | Cc1cc(Nc2nc(S(C)(=O)=O)nc3c2COC3)[nH]n1 [Example 13, 5,7-Dihydro-N-(3-methyl-1H-pyrazol-5-yl)-2-(methylsulfonyl)furo[3,4-d]pyrimidin-4-amine]
7 | 0.063 | > 10 | 2.56 | COc1cc(Nc2nc(SC)nc3c2CCC3)cc(OC)c1 [Example 21, 6,7-Dihydro-N-(3,5-dimethoxyphenyl)-2-(methylthio)-5H-cyclopenta[d]pyrimidin-4-amine]

Continued, compound first:

Row | Compound | EC50 [1] [µM] | EC50 [2] [µM] | EC50 [3] [µM]
8 | Cc1cc(Nc2nc(Sc3ccc(NC(=O)C4CC4)cc3)nc3c2COC3)[nH]n1 [Example 14, N-(4-(4-(3-Methyl-1H-pyrazol-5-ylamino)-5,7-dihydrofuro[3,4-d]pyrimidin-2-ylthio)phenyl)cyclopropanecarboxamide] | 2.74 | 2.42 | 1.36
9 | CS(=O)(=O)c1nc2c(c(Sc3ccc(NC(=O)C4CC4)cc3)n1)COC2 [Example 15, N-(4-(5,7-Dihydro-2-(methylsulfonyl)furo[3,4-d]pyrimidin-4-ylthio)phenyl)cyclopropanecarboxamide] | 14.1 | ≥ 14.2 | 9.07
10 | Cc1cc(Nc2nc3c(c(Sc4ccc(NC(=O)C5CC5)cc4)n2)COC3)[nH]n1 [Example 16, N-(4-(2-(3-Methyl-1H-pyrazol-5-ylamino)-5,7-dihydrofuro[3,4-d]pyrimidin-4-ylthio)phenyl)cyclopropanecarboxamide] | > 10 | > 10 | > 10
11 | Cc1cc(Nc2nc(Cl)nc3c2CN(C(=O)OCC2c4ccccc4-c4ccccc42)C3)[nH]n1 [Example 17, (9H-Fluoren-9-yl)methyl 4-(3-methyl-1H-pyrazol-5-ylamino)-2-chloro-5H-pyrrolo[3,4-d]pyrimidine-6(7H)-carboxylate] | > 10 | > 10 | > 10
12 | CSc1nc2c(c(Nc3cccc(Br)c3)n1)CCC2 [Example 19, N-(3-Bromophenyl)-6,7-dihydro-2-(methylthio)-5H-cyclopenta[d]pyrimidin-4-amine] | > 10 | > 10 | > 10
13 | CSc1nc2c(c(Nc3cc(C)n[nH]3)n1)CCC2 [Example 20, 6,7-Dihydro-N-(5-methyl-1H-pyrazol-3-yl)-2-(methylthio)-5H-cyclopenta[d]pyrimidin-4-amine] | > 10 | ≥ 10.6 | 2.69
14 | CSc1nc2c(c(Nc3ccc(NC(=O)c4ccccc4)cc3)n1)CCC2 [Example 22, N-(4-(6,7-Dihydro-2-(methylthio)-5H-cyclopenta[d]pyrimidin-4-ylamino)phenyl)benzamide] | > 10 | > 10 | > 10
15 | O=C(Nc1ccc(Nc2ncnc3c2CCC3)cc1)c1ccccc1 [Example 26, N-(4-(6,7-Dihydro-5H-cyclopenta[d]pyrimidin-4-ylamino)phenyl)benzamide] | > 10 | > 10 | > 10
16 | Cc1cc(Nc2nc(N3CCN(C)CC3)nc3c2CNC3)[nH]n1 [Example 28, [2-(4-Methyl-piperazin-1-yl)-6,7-dihydro-5H-pyrrolo[3,4-d]pyrimidin-4-yl]-(5-methyl-2H-pyrazol-3-yl)-amine] | > 10 | > 10 | > 10
17 | O=C(Nc1ccc(Sc2nc(Cl)nc3c2CN(C(=O)OCC2c4ccccc4-c4ccccc42)C3)cc1)C1CC1 [Example 29, (9H-Fluoren-9-yl)methyl 2-chloro-4-((4-(cyclopropanecarboxamido)phenyl)sulfanyl)-5H-pyrrolo[3,4-d]pyrimidine-6(7H)-carboxylate] | > 10 | > 10 | > 10
18 | COc1cc(Nc2nc(Cl)nc3c2CN(C(=O)OCC2c4ccccc4-c4ccccc42)C3)cc(N(C)C)c1 [Example 30, (9H-Fluoren-9-yl)methyl 4-(3-(dimethylamino)-5-methoxyphenylamino)-2-chloro-5H-pyrrolo[3,4-d]pyrimidine-6(7H)-carboxylate] | 1.57 | > 10 | > 10
19 | COc1ccc(N(C)c2nc(Cl)nc3c2CN(C(=O)OCC2c4ccccc4-c4ccccc42)C3)cc1 [Example 31, (9H-Fluoren-9-yl)methyl 4-(N-(4-methoxyphenyl)-N-methylamino)-2-chloro-5H-pyrrolo[3,4-d]pyrimidine-6(7H)-carboxylate] | > 10 | > 10 | 5
20 | Cc1cc(Nc2nc(N3CCN(C)CC3)nc3c2COC3)[nH]n1 [Example 32, 5,7-Dihydro-N-(3-methyl-1H-pyrazol-5-yl)-2-(4-methylpiperazin-1-yl)furo[3,4-d]pyrimidin-4-amine] | > 10 | > 10 | > 10
